EC50 data for 37 compounds are collected here from patent US9187428B2, “Substituted dicyanopyridines and use thereof” (Bayer Intellectual Property GmbH, priority 2010, dated 2015).

Type in all cases: cell-based
One experiment addresses adenosine A1 receptor (Homo sapiens (Human), UniProt P30542). As to the kind of experiment: Indirect determination of adenosine agonism by gene expression (luciferase reporter), A1 cells. The note with it: CHO cells stably transfected with adenosine A1 receptor; 1 μM forskolin; 50% inhibition of luciferase response. The source says:
(§1) B-1. Indirect Determination of the Adenosine Agonism by Way of Gene Expression
(§2) Cells of the CHO (Chinese Hamster Ovary) permanent line are transfected stably with the cDNA for the adenosine receptor subtypes A1, A2a and A2b. The adenosine A1 receptors are coupled to the adenylate cyclase by way of Gi proteins, while the adenosine A2a and A2b receptors are coupled by way of Gs proteins. In correspondence with this, the formation of cAMP in the cell is inhibited or stimulated, respectively. After that, expression of the luciferase is modulated by way of a cAMP-dependent promoter. The luciferase test is optimized, with the aim of high sensitivity and reproducibility, low variance and good suitability for implementation on a robot system, by varying several test parameters, such as cell density, duration of the growth phase and the test incubation, forskolin concentration and medium composition. The following test protocol is used for pharmacologically characterizing cells and for the robot-assisted substance screening:
(§3) The stock cultures are grown, at 37° C. and under 5% CO2, in DMEM/F12 medium containing 10% FCS (fetal calf serum) and in each case split 1:10 after 2-3 days. Test cultures are seeded in 384-well plates with 2000 cells per well and grown at 37° C. for approx. 48 hours. The medium is then replaced with a physiological sodium chloride solution (130 mM sodium chloride, 5 mM potassium chloride, 2 mM calcium chloride, 20 mM HEPES, 1 mM magnesium chloride hexahydrate, 5 mM sodium bicarbonate, pH 7.4). The substances to be tested, which are dissolved in DMSO, are pipetted into the test cultures (maximum final concentration of DMSO in the test mixture: 0.5%) in a dilution series of from 5×10^−11 M to 3×10^−6 M (final concentration). 10 minutes later, forskolin is added to the A1 cells and all the cultures are subsequently incubated at 37° C. for four hours. After that, 35 μl of a solution which is composed of 50% lysis reagent (30 mM disodium hydrogenphosphate, 10% glycerol, 3% TritonX100, 25 mM TrisHCl, 2 mM dithiotreitol (DTT), pH 7.8) and 50% luciferase substrate solution (2.5 mM ATP, 0.5 mM luciferin, 0.1 mM coenzyme A, 10 mM tricine, 1.35 mM magnesium sulfate, 15 mM DTT, pH 7.8) are added to the test cultures, which are shaken for approx. 1 minute and the luciferase activity is measured using a camera system. The EC50 values are determined, i.e., the concentrations at which 50% of the luciferase response is inhibited in the case of the A1 cell, and, respectively, 50% of the maximum stimulation with the corresponding substance is achieved in the case of the A2b and A2a cells. […] Pharmacol., 357, 1-9 (1998)].
(§4) Table A below lists the EC50 values of representative working examples for the receptor stimulation on adenosine A1, A2a and A2b receptor subtypes: […]
For orientation: Reporter assays use an easily measured gene product as a stand-in for the process of interest.

The target of a further experiment is adenosine A2a receptor (Homo sapiens (Human), UniProt P29274). As to the kind of experiment: Indirect determination of adenosine agonism by gene expression (luciferase reporter), A2a cells. The note with it: CHO cells stably transfected with adenosine A2a receptor, 50% of maximum stimulation.
Sequence of adenosine A2a receptor (P29274 whole entry): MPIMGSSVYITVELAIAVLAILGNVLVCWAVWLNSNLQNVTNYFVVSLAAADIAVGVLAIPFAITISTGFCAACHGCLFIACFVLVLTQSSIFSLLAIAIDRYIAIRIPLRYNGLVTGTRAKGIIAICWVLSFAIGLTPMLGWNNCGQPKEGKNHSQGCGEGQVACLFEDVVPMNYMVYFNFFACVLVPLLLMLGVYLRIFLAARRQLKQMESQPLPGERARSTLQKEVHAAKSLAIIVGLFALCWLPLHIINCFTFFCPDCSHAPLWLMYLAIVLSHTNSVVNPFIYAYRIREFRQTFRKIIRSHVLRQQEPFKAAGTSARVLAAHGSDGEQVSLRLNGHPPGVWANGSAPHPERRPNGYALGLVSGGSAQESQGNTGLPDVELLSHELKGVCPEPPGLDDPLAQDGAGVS
From the text: as §1, §2, §3, §4

The next experiment has as its target adenosine A2b receptor (Homo sapiens (Human), UniProt P29275). As to the kind of experiment: Indirect determination of adenosine agonism by gene expression (luciferase reporter), A2b cells. The note with it: CHO cells stably transfected with adenosine A2b receptor, 50% of maximum stimulation.
From the text: as §1, §2, §3, §4

Sequence of adenosine A2b receptor (P29275 whole entry): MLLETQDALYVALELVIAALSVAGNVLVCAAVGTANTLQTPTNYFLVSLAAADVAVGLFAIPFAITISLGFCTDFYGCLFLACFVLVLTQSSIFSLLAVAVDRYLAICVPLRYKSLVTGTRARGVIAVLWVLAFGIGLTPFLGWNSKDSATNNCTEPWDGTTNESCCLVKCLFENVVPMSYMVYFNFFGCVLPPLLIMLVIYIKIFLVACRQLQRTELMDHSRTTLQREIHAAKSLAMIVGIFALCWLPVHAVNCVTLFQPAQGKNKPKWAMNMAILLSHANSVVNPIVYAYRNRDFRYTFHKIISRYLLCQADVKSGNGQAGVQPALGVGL
Sequence of adenosine A1 receptor (P30542 whole entry): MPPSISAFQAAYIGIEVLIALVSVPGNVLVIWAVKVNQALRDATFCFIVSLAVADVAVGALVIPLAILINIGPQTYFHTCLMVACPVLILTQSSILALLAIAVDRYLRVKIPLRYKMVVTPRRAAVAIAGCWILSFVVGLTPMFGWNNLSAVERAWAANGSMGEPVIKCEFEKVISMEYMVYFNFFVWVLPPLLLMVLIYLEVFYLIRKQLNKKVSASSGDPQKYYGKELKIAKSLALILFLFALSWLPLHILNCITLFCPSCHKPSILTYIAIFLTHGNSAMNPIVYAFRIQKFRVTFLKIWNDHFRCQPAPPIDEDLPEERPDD

Consider `CNC(=O)c1cc(C(C)Sc2nc(N)c(C#N)c(-c3ccc(OCC(F)(F)F)cc3)c2C#N)ccn1` (racemic) [Example 56, rac-4-[1-({6-Amino-3,5-dicyano-4-[4-(2,2,2-trifluoroethoxy)phenyl]pyridin-2-yl}sulfanyl)ethyl]-N-methylpyridine-2-carboxamide], for which the EC50 at adenosine A1 receptor is 2.8 nM; at adenosine A2a receptor, not below 3000 nM; on adenosine A2b receptor, not below 3000 nM.

In the case of `CC(Sc1nc(N)c(C#N)c(-c2ccc(OCCO)cc2)c1C#N)c1cccc(C(N)=O)c1` (racemic) [Example 60, rac-3-[1-({6-Amino-3,5-dicyano-4-[4-(2-hydroxyethoxy)phenyl]pyridin-2-yl}sulfanyl)ethyl]-benzenecarboxamide], the EC50 on adenosine A1 receptor was 0.4 nM; on adenosine A2a receptor, not below 3000 nM; at adenosine A2b receptor, 1440 nM.

On to `CNC(=O)c1cccc(C(C)Sc2nc(N)c(C#N)c(-c3ccc(OCCO)cc3)c2C#N)c1` (racemic) [Example 62, rac-3-[1-({6-Amino-3,5-dicyano-4-[4-(2-hydroxyethoxy)phenyl]pyridin-2-yl}sulfanyl)ethyl]-N-methylbenzenecarboxamide], for which the EC50 at adenosine A1 receptor is 0.3 nM; at adenosine A2a receptor, not below 3000 nM; at adenosine A2b receptor, 262 nM.

Compound `CNC(=O)c1cc(CSc2nc(N)c(C#N)c(-c3ccc(F)cc3)c2C#N)ccn1` [Example 2] gave a concentration giving a half-maximal response (EC50) on adenosine A1 receptor of 0.3 nM.

As for `CNC(=O)c1cc(CSc2nc(N)c(C#N)c(-c3ccc(OC)cc3)c2C#N)ccn1` [Example 3], the EC50 at adenosine A1 receptor is 0.2 nM; at adenosine A2a receptor, 425 nM.

Take `CNC(=O)c1cc(CSc2nc(N)c(C#N)c(-c3ccc4c(c3)OCCO4)c2C#N)ccn1` [Example 6]: the concentration for a half-maximal effect (EC50) at adenosine A1 receptor was 0.06 nM; on adenosine A2b receptor, 71 nM.

Consider `CNC(=O)c1cc(CSc2nc(N)c(C#N)c(-c3ccc(OCC(C)(C)O)cc3)c2C#N)ccn1` [Example 7], for which the EC50 stood at 0.1 nM on adenosine A1 receptor, 460 nM on adenosine A2a receptor and 32 nM at adenosine A2b receptor.

Take `N#Cc1c(N)nc(SCc2cccc(C(=O)O)c2)c(C#N)c1-c1ccc(F)cc1` [Example 14, 3-({[6-amino-3,5-dicyano-4-(4-fluorophenyl)pyridin-2-yl]sulfanyl}methyl)-benzenecarboxylic acid]: the EC50 at adenosine A1 receptor worked out at 3.5 nM.

As to `N#Cc1cnc(SCc2cccc(C(=O)O)c2)c(C#N)c1-c1ccccc1` [Example 15], the EC50 at adenosine A1 receptor amounted to 0.8 nM; on adenosine A2b receptor, 106 nM.

Regarding `CNC(=O)c1cc(COc2nc(N)c(C#N)c(-c3ccc(F)cc3)c2C#N)ccn1` [Example 21, 4-({[6-Amino-3,5-dicyano-4-(4-fluorophenyl)pyridin-2-yl]oxy}methyl)-N-methylpyridine-2-carboxamide], on adenosine A1 receptor, the EC50 worked out at 0.9 nM.

Turning to `CCOc1ccc(-c2c(C#N)c(N)nc(SCc3ccnc(C(=O)NC)c3)c2C#N)cc1` [Example 26], the EC50 worked out at 0.2 nM at adenosine A1 receptor, 65 nM at adenosine A2a receptor and 243 nM on adenosine A2b receptor.

`CNC(=O)c1cc(CSc2nc(N)c(C#N)c(-c3ccc(F)c(OC)c3)c2C#N)ccn1` [Example 27]: on adenosine A1 receptor, a half-maximal effect (EC50) was put at 0.3 nM.

Take `CNC(=O)c1cc(CSc2nc(N)c(C#N)c(-c3ccc(NC)cc3)c2C#N)ccn1` [Example 28]: the values for the EC50 at adenosine A1 receptor and on adenosine A2a receptor were 0.4 nM and 1640 nM, respectively.

For `CNC(=O)c1cc(CSc2nc(N)c(C#N)c(-c3cccc(OCCO)c3)c2C#N)ccn1` [Example 29], the half-maximal effective concentration (EC50) at adenosine A1 receptor turned out to be 0.5 nM.

Take `CNC(=O)c1cc(CSc2ncc(C#N)c(-c3ccc(OCCO)cc3)c2C#N)ccn1` [Example 30]: the EC50 on adenosine A1 receptor is 0.4 nM; at adenosine A2a receptor, 1110 nM; at adenosine A2b receptor, 122 nM.

`CNC(=O)c1cc(CSc2ncc(C#N)c(-c3ccc(OC)cc3)c2C#N)ccn1` [Example 31]: the EC50 at adenosine A1 receptor was 1.6 nM; on adenosine A2a receptor, 707 nM; on adenosine A2b receptor, 708 nM.

In the case of `CNC(=O)c1cc(CSc2ncc(C#N)c(-c3ccccc3)c2C#N)ccn1` [Example 32], the half-maximal effective concentration (EC50) on adenosine A1 receptor stood at 0.4 nM; at adenosine A2b receptor it was 2120 nM.

Turning to `CS(=O)(=O)Nc1cccc(CSc2nc(N)c(C#N)c(-c3ccc(F)cc3)c2C#N)c1` [Example 37], the values for the EC50 on adenosine A1 receptor and on adenosine A2a receptor were 0.7 nM and 1780 nM, respectively.

Turning to `CS(=O)(=O)Nc1cccc(CSc2nc(N)c(C#N)c(-c3ccc(F)c(F)c3)c2C#N)c1` [Example 38], the EC50 on adenosine A1 receptor was 0.5 nM.

Take `CNC(=O)c1cc(CSc2nc(N)c(C#N)c(-c3ccc(OC)cc3OC)c2C#N)ccn1` [Example 44]: at adenosine A1 receptor, the EC50 was found to be 0.4 nM.

On to `CNC(=O)c1cc(CSc2nc(N)c(C#N)c(-c3ccc(OS(=O)(=O)N(C)C)cc3)c2C#N)ccn1` [Example 46], for which the half-maximal effective concentration (EC50) came out at 0.04 nM on adenosine A1 receptor, 781 nM on adenosine A2a receptor and 425 nM on adenosine A2b receptor.

At adenosine A1 receptor, `CCCOc1cccc(-c2c(C#N)c(N)nc(SCc3ccnc(C(=O)NC)c3)c2C#N)c1` [Example 49] yielded a half-maximal effective concentration (EC50) of 0.3 nM.

In turn, `CNC(=O)c1cc(CSc2nc(N)c(C#N)c(-c3ccc(F)c(C(F)(F)F)c3)c2C#N)ccn1` [Example 50] came in with a 50% effective concentration (EC50) at adenosine A1 receptor of 0.5 nM.

For the compound `CNC(=O)c1cc(CSc2nc(N)c(C#N)c(-c3cc(F)cc(F)c3)c2C#N)ccn1` [Example 51], the EC50 on adenosine A1 receptor turned out to be 0.2 nM.

`CNC(=O)c1cc(CSc2nc(N)c(C#N)c(-c3ccc(F)c(F)c3)c2C#N)ccn1` [Example 53] registered a concentration for a half-maximal effect (EC50) on adenosine A1 receptor of 0.3 nM.

With `N#Cc1cnc(SCc2cccc(C(N)=O)c2)c(C#N)c1-c1ccccc1` [Example 65, 3-{[(3,5-Dicyano-4-phenylpyridin-2-yl)sulfanyl]methyl}benzenecarboxamide], the 50% effective concentration (EC50) at adenosine A1 receptor turned out to be 3.3 nM; on adenosine A2b receptor it was 571 nM.

On to `N#Cc1cnc(SCc2cccc(C(=O)NCCO)c2)c(C#N)c1-c1ccccc1` [Example 66, 3-{[(3,5-Dicyano-4-phenylpyridin-2-yl)sulfanyl]methyl}-N-(2-hydroxyethyl)benzenecarboxamide], for which the EC50 at adenosine A1 receptor was determined as 1.3 nM.

At adenosine A1 receptor, `CNC(=O)c1cc(CSc2nc(N3CC(O)C3)c(C#N)c(-c3ccc(OC)cc3)c2C#N)ccn1` [Example 72] displayed an EC50 of 0.5 nM.

In turn, `CNC(=O)c1cc(CSc2nc(N3CC(O)C3)c(C#N)c(-c3ccc(F)c(F)c3)c2C#N)ccn1` [Example 74] returned an EC50 at adenosine A1 receptor of 2.4 nM.

Turning to `CNC(=O)c1cc(CSc2nc(N3CC[C@@H](O)C3)c(C#N)c(-c3ccc4c(c3)OCCO4)c2C#N)ccn1` [Example 82], the EC50 on adenosine A1 receptor is 0.2 nM; on adenosine A2a receptor, 1980 nM.

On adenosine A1 receptor, `CNC(=O)c1cc(CSc2nc(NCCO)c(C#N)c(-c3ccc(OC)cc3)c2C#N)ccn1` [Example 84] gave an EC50 of 0.4 nM.

With `N#Cc1c(SCc2ccnc(C(=O)NC3CC3)c2)nc(N2CCCC2)c(C#N)c1-c1ccccc1` [Example 85], the EC50 on adenosine A1 receptor turned out to be 0.5 nM; at adenosine A2a receptor, 1020 nM.

`CNC(=O)c1cc(CSc2nc(NCC(O)C(F)(F)F)c(C#N)c(-c3ccccc3)c2C#N)ccn1` (stereo not shown) [Example 87] showed an EC50 at adenosine A1 receptor of 0.6 nM.

For the compound `CNC(=O)c1cc(CSc2nc(NCCO)c(C#N)c(-c3ccccn3)c2C#N)ccn1` [Example 88], the values for the EC50 at adenosine A1 receptor and on adenosine A2a receptor were 0.7 nM and 1980 nM, respectively.

For `CNC(=O)c1cc(COc2nc(N3CC(O)C3)c(C#N)c(-c3ccccc3)c2C#N)ccn1` [Example 93, 4-({[3,5-Dicyano-6-(3-hydroxyazetidin-1-yl)-4-phenylpyridin-2-yl]oxy}methyl)-N-methylpyridine-2-carboxamide], the EC50 at adenosine A1 receptor was determined as 0.9 nM.

In the case of `CNC(=O)c1cccc(CSc2nc(N3CC[C@@H](O)C3)c(C#N)c(-c3ccc(OCCO)cc3)c2C#N)c1` [Example 94, 3-[({3,5-Dicyano-4-[4-(2-hydroxyethoxy)phenyl]-6-[(3R)-3-hydroxypyrrolidin-1-yl]pyridin-2-yl}-sulfanyl)methyl]-N-methylbenzenecarboxamide], a half-maximal effect on adenosine A1 receptor (EC50) was put at 0.2 nM.

Consider `N#Cc1c(N)nc(SCc2cccc(C(=O)NC[C@@H](O)CO)c2)c(C#N)c1-c1ccc(F)cc1` [Example 96, 3-({[6-Amino-3,5-dicyano-4-(4-fluorophenyl)pyridin-2-yl]sulfanyl}methyl)-N-[(2R)-2,3-dihydroxypropyl]benzenecarboxamide], for which the EC50 was found to be 0.4 nM at adenosine A1 receptor and 204 nM at adenosine A2b receptor.

For orientation: EC50 means the concentration giving half of the maximal effect. Higher therefore signals a less potent agent.
